# Data reported in patent publication US4450165A, “Dihydropyridine compounds” (Yoshitomi Pharmaceutical Industries, Ltd., priority 1981, dated 1984).
# Experiments:
# [1] = system: vertebral blood flow (right vertebral artery); experiment: Effect on vertebral blood flow; format: in vivo, mongrel dogs; settings: anesthetized dogs; for ED100 (effective dose in blood flow): injected into afferent tube, increase in blood flow by papaverine 100 μg taken as 100%; for Duration (time for which the half maximum response remained): vertebral blood flow
# Method: Under the artificial ventilation, the right vertebral artery was perfused with the arterial blood from the left carotid artery through a short bypass. The perfused flow was measured by means of an electromagnetic flow-meter. The test compound was dissolved in an aqueous solution containing 0.1% dimethyl sulfoxide and 0.01% polyoxyethylene hydrogenated castor oil (cremophor EL®), and injected into the afferent tube. […] The duration was measured as the time for which the half maximum response remained.
# [2] = system: coronary blood flow (left coronary artery); experiment: Effect on coronary blood flow; format: in vivo, mongrel dogs; settings: anesthetized dogs; for ED50 (effective dose in blood flow): injected into afferent cannula, increase in blood flow by nifedipine 10 μg taken as 100%; for Duration (time for which the half maximum response remained): coronary blood flow
# Method: The perfused flow was measured by means of an electromagnitic flow-meter. The test compound was dissolved in an aqueous solution containing 15% ethanol and 15% polyethylene glycol, and injected into the afferent cannula. […] The duration was measured as the time for which the half maximum response remained.
# [3] = system: spontaneously hypertensive rats; experiment: Hypotensive activity (systolic blood pressure, indirect tail cuff method); format: in vivo; settings: Rattus norvegicus; oral; before and at 1, 3, 5 and 7 hours; five male spontaneously hypertensive rats; from dose response curve; read-out: ED30 (effective dose which showed the maximum hypotension by 30 mmHg)
# Method: Five male spontaneously hypertensive rats were used for each experiment. Systolic blood pressure was determined using an indirect tail cuff method before and at 1, 3, 5 and 7 hours following the oral administration of the test compound.
Compound,ED100 (effective dose in blood flow) [1],ED50 (effective dose in blood flow) [2],ED (30 mmHg) [3],Duration (time for which the half maximum response remained) [1],Duration (time for which the half maximum response remained) [2]
"COc1ccc(Cc2nccc3cc(OC)c(OC)cc23)cc1OC [Papaverine, reference compound]",100 µg,,,,
COC(=O)C1=C(C)NC(C)=C(C(=O)OC)C1c1ccccc1[N+](=O)[O-] [Nifedipine],,0.5 µg,,,
"COC(=O)C1=C(C)NC(C)=C(C(=O)OC(CN(C)Cc2ccccc2)c2ccco2)C1c1cccc([N+](=O)[O-])c1.Cl (stereo not drawn) [Test Compound A, 2,6-Dimethyl-4-(m-nitrophenyl)-1,4-dihydropyridine-3,5-dicarboxylic acid-3-methylester-5-[2-(N-benzyl-N-methylamino)-1-(2-furyl)ethyl]ester hydrochloride]",1.0 µg,1.5 µg,1.3 mg/kg,11.0 min,15.0 min
"COC(=O)C1=C(C)NC(C)=C(C(=O)OC(CN(C)Cc2ccccc2)c2cccs2)C1c1cccc([N+](=O)[O-])c1.Cl (stereo not drawn) [Test Compound B, 2,6-Dimethyl-4-(m-nitrophenyl)-1,4-dihydropyridine-3,5-dicarboxylic acid-3-methylester-5-[2-(N-benzyl-N-methylamino)-1-(2-thienyl)ethyl]ester hydrochloride]",1.8 µg,,1 mg/kg,22.5 min,
"COC(=O)C1=C(C)NC(C)=C(C(=O)OCCN(C)Cc2ccccc2)C1c1cccc([N+](=O)[O-])c1.Cl (stereo not drawn) [Nicardipine, 2,6-Dimethyl-4-(m-nitrophenyl)-1,4-dihydropyridine-3,5-dicarboxylic acid-3-methylester-5-[2-(N-benzyl-N-methylamino)ethyl]ester hydrochloride, reference compound]",0.4 µg,0.5 µg,5 mg/kg,1.0 min,3.0 min
